This is an account of results in patent US10093660B2, “Sulfoximine substituted quinazolines for pharmaceutical compositions” (EVOTEC INTERNATIONAL GMBH, priority 2013, dated 2018).

Sequence of MNK2a (Q9HBH9 whole entry): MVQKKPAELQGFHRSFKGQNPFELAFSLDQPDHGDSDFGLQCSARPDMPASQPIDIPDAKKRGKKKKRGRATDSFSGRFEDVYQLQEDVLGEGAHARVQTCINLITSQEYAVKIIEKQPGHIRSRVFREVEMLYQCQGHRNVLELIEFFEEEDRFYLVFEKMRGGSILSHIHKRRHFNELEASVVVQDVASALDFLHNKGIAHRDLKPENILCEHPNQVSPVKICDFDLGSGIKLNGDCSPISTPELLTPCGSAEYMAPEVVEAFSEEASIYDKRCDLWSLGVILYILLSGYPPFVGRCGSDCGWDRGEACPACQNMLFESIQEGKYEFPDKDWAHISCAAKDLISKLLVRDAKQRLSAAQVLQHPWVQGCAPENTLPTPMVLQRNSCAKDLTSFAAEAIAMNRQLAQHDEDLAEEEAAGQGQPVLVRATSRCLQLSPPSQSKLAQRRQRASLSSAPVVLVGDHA

The first assay has as its target MNK2a (Homo sapiens (Human), UniProt Q9HBH9). As to the kind of experiment: MNK2a in vitro kinase assay (Assay 2), ADP-Glo. In kind it is biochemical. The note with it: assay 2; read-out: MNK2 IC50. The text has this:
B. MNK2a In Vitro Kinase Assay (Assay 2)
Background: ADP-Glo first removes unused ATP, then detects ADP through luciferase.
By IC50 is commonly meant the point on the concentration scale where inhibition reaches its midpoint. In the case of `COc1cc(N=S2(=O)CCC2)cc2ncnc(Nc3cccnc3O[C@H]3COC[C@H]3O)c12` (racemic) [Example 8.4], the IC50 is 11 nM.

In the case of `COc1cc(N=S2(=O)CCCC2)cc2ncnc(Nc3cccnc3O[C@H]3COC[C@H]3O)c12` (racemic) [Example 8.5], the IC50 amounted to 21 nM.

Consider `COc1cc(N=S(C)(C)=O)cc2ncnc(Nc3ccc(F)cc3O[C@H]3COC[C@H]3OC)c12` (racemic) [Example 9.1], for which the IC50 is 2 nM.

As to `COc1cc(N=S2(=O)CCCC2)cc2ncnc(Nc3ccc(F)cc3O[C@H]3COC[C@H]3OC)c12` (racemic) [Example 9.2], the IC50 was 2 nM.

Consider `COc1cc(N=S(C)(C)=O)cc2ncnc(Nc3ccc(F)cc3O[C@H]3COC[C@H]3O)c12` (racemic) [Example 9.3], for which the IC50 amounted to 26 nM.

Regarding `COc1cc(N=S2(=O)CCCC2)cc2ncnc(Nc3ccc(F)cc3O[C@H]3COC[C@H]3O)c12` (racemic) [Example 9.13], the IC50 came out at 6 nM.

With `COc1cc(N=S2(=O)CCC2)cc2ncnc(Nc3ccc(F)cc3O[C@H]3COC[C@H]3O)c12` (racemic) [Example 9.16], the 50% inhibitory concentration (IC50) is 7 nM.

In the case of `Cc1cc(N=S2(=O)CCCC2)cc2ncnc(Nc3ccc(F)cc3O[C@H]3COC[C@H]3OCCF)c12` (racemic) [Example 10.1], the IC50 was 1 nM.

Consider `Cc1cc(N=S(C)(C)=O)cc2ncnc(Nc3ccc(F)cc3O[C@H]3COC[C@H]3OCCF)c12` (racemic) [Example 10.2], for which the IC50 is 2 nM.

For `Cc1cc(N=S(C)(C)=O)cc2ncnc(Nc3ccc(F)cc3O[C@H]3COC[C@H]3OCC(F)F)c12` (racemic) [Example 10.3], the IC50 turned out to be 3 nM.

For `Cc1cc(N=S2(=O)CCCC2)cc2ncnc(Nc3ccc(F)cc3O[C@H]3COC[C@H]3OCC(F)F)c12` (racemic) [Example 10.4], the IC50 was 3 nM.

As to `CO[C@@H]1C=C[C@@H](Oc2cc(F)ccc2Nc2ncnc3cc(N=S(C)(C)=O)cc(C)c23)CO1` (racemic) [Example 13.1], the IC50 turned out to be 6 nM.

For `CO[C@@H]1COC[C@H]1Oc1cc(F)ccc1Nc1ncnc2cc(N=S(C)(C)=O)cc(C)c12` (racemic) [Example 13.2], the IC50 was determined as 13 nM.

`O=S1(=Nc2cc(Cl)c3c(Nc4ccc(F)cc4O[C@@H]4COC[C@@H]4O)ncnc3c2)CCC1` (single isomer, unassigned) [Example 1.34]: the IC50 was found to be 3 nM.

With `O=S1(=Nc2cc(Cl)c3c(Nc4ccc(F)cc4O[C@H]4COC[C@H]4O)ncnc3c2)CCC1` (single isomer, unassigned) [Example 1.35], the IC50 worked out at 1 nM.

On to `CO[C@H]1COC[C@H]1Oc1ncccc1Nc1ncnc2cc(N=S3(=O)CCCC3)cc(C)c12` (single isomer, unassigned) [Example 14.1], for which the IC50 stood at 1 nM.

`CO[C@@H]1COC[C@@H]1Oc1ncccc1Nc1ncnc2cc(N=S3(=O)CCCC3)cc(C)c12` (single isomer, unassigned) [Example 14.2]: the IC50 came to 10 nM.

The target of the next assay is MNK1a (Homo sapiens (Human), UniProt Q9BUB5). As to the kind of experiment: MNK1 in vitro kinase assay (Assay 3), Z'-LYTE. The assay is classed as biochemical.
Sequence of MNK1a (Q9BUB5 other isoform, or with tags, fused parts or gaps): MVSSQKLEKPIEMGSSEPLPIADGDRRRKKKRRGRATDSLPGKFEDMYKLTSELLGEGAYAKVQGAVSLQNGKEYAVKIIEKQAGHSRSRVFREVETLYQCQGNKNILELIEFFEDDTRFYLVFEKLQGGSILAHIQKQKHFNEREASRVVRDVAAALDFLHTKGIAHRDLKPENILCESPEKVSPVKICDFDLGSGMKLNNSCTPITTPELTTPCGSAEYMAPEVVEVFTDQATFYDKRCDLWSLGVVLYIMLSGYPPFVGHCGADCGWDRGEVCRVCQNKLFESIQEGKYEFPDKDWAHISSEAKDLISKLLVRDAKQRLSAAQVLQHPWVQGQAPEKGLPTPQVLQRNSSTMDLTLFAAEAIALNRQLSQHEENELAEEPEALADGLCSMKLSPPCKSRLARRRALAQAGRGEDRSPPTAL
Settings: not given
The text has this: C. MNK1 In Vitro Kinase Assay (Assay 3)
MNK1 Data can be obtained from the MNK1 Z′-LYTE® assay. The MNK1 Z′-LYTE® screening protocol and assay conditions are also described on www.invitrogen.com.
The assay is described as follows:
The Z′-LYTE® biochemical assay employs a fluorescence-based, coupled-enzyme format and is based on the differential sensitivity of phosphorylated and non-phosphorylated peptides to proteolytic cleavage. The peptide substrate is labeled with two fluorophores—one at each end—that make up a FRET pair.
In the primary reaction, the kinase transfers the gamma-phosphate of ATP to a single tyrosine, serine or threonine residue in a synthetic FRET-peptide. In the secondary reaction, a site-specific protease recognizes and cleaves non-phosphorylated FRET-peptides. Phosphorylation of FRET-peptides suppresses cleavage by the Development Reagent. Cleavage disrupts FRET between the donor (i.e., coumarin) and acceptor (i.e., fluorescein) fluorophores on the FRET-peptide, whereas uncleaved, phosphorylated FRET-peptides maintain FRET. A ratiometric method, which calculates the ratio (the Emission Ratio) of donor emission to acceptor emission after excitation of the donor fluorophore at 400 nm, is used to quantitate reaction progress, as shown in the equation below.
The 2×MKNK1 (MNK1) mixture is prepared in 50 mM HEPES pH 7.5, 0.01% BRIJ-35, 10 mM MgCl2, 4 mM MnCl2, 1 mM EGTA, 2 mM DTT.
The Test Compounds are screened in 1% DMSO (final) in the well.
All Peptide/Kinase Mixtures are diluted to a 2× working concentration in the MNK1 Kinase Buffer.
All ATP Solutions are diluted to a 4× working concentration in Kinase Buffer (50 mM HEPES pH 7.5, 0.01% BRIJ-35, 10 mM MgCl2, 1 mM EGTA).
Development Reagent Solution:
The Development Reagent is diluted in Development Buffer
1. 2.5 μL—4× Test Compound
2. 5 μL—2× Peptide/Kinase Mixture
5. 60-minute Kinase Reaction incubation at room temperature
6. 5 μL—Development Reagent Solution
8. 60-minute Development Reaction incubation at room temperature
9. Read on fluorescence plate reader and analyze the data
Control C0%=Average Coumarin emission signal of the 0% Phos. Control F100%=Average Fluorescein emission signal of the 100% Phos. Control F0%=Average Fluorescein emission signal of the 0% Phos. Control Graphing Software
SelectScreen® Kinase Profiling Service uses XLfit from IDBS. […] The activity of MNK proteins can be assayed also by other in vitro kinase assay formats. […] In general, MNK kinase assays can be performed such that a MNK substrate such as a protein or a peptide, which may or may not include modifications as further described below, or others are phosphorylated by MNK proteins having enzymatic activity in vitro. The activity of a candidate agent can then be determined via its ability to decrease the enzymatic activity of the MNK protein. The kinase activity may be detected by change of the chemical, physical or immunological properties of the substrate due to phosphorylation.
`COc1cc(N=S2(=O)CCC2)cc2ncnc(Nc3cccnc3O[C@H]3COC[C@H]3O)c12` (racemic) [Example 8.4] registered an IC50 of 104 nM.

`Cc1cc(N=S2(=O)CCCC2)cc2ncnc(Nc3ccc(F)cc3O[C@H]3COC[C@H]3OCCF)c12` (racemic) [Example 10.1] had an IC50 of 55 nM.

`Cc1cc(N=S(C)(C)=O)cc2ncnc(Nc3ccc(F)cc3O[C@H]3COC[C@H]3OCC(F)F)c12` (racemic) [Example 10.3]: the midpoint of inhibition, the IC50, lay at 41 nM.

`O=S1(=Nc2cc(Cl)c3c(Nc4ccc(F)cc4O[C@H]4COC[C@H]4O)ncnc3c2)CCC1` (single isomer, unassigned) [Example 1.35] yielded an IC50 of 25 nM.

Staying with this assay, now noted: compound concentration of 1 μM, read-out: MNK1 % INH.
Regarding `COc1cc(N=S2(=O)CCCC2)cc2ncnc(Nc3cccnc3O[C@H]3COC[C@H]3O)c12` (racemic) [Example 8.5], the inhibition at 1 µM is 97%.

Regarding `COc1cc(N=S(C)(C)=O)cc2ncnc(Nc3ccc(F)cc3O[C@H]3COC[C@H]3OC)c12` (racemic) [Example 9.1], the inhibition at 1 µM was found to be 96%.

For `COc1cc(N=S2(=O)CCCC2)cc2ncnc(Nc3ccc(F)cc3O[C@H]3COC[C@H]3OC)c12` (racemic) [Example 9.2], the inhibition at 1 µM was 94%.

For `COc1cc(N=S(C)(C)=O)cc2ncnc(Nc3ccc(F)cc3O[C@H]3COC[C@H]3O)c12` (racemic) [Example 9.3], the inhibition at 1 µM stood at 90%.

For the molecule `COc1cc(N=S2(=O)CCCC2)cc2ncnc(Nc3ccc(F)cc3O[C@H]3COC[C@H]3O)c12` (racemic) [Example 9.13], the inhibition at 1 µM turned out to be 99%.

For `COc1cc(N=S2(=O)CCC2)cc2ncnc(Nc3ccc(F)cc3O[C@H]3COC[C@H]3O)c12` (racemic) [Example 9.16], the inhibition at 1 µM came out at 98%.

Turning to `Cc1cc(N=S(C)(C)=O)cc2ncnc(Nc3ccc(F)cc3O[C@H]3COC[C@H]3OCCF)c12` (racemic) [Example 10.2], the inhibition at 1 µM was 93%.

Take `Cc1cc(N=S2(=O)CCCC2)cc2ncnc(Nc3ccc(F)cc3O[C@H]3COC[C@H]3OCC(F)F)c12` (racemic) [Example 10.4]: the inhibition at 1 µM was found to be 104%.

Turning to `CO[C@@H]1C=C[C@@H](Oc2cc(F)ccc2Nc2ncnc3cc(N=S(C)(C)=O)cc(C)c23)CO1` (racemic) [Example 13.1], the inhibition at 1 µM was 96%.

Turning to `CO[C@@H]1COC[C@H]1Oc1cc(F)ccc1Nc1ncnc2cc(N=S(C)(C)=O)cc(C)c12` (racemic) [Example 13.2], the inhibition at 1 µM was found to be 69%.

As to `O=S1(=Nc2cc(Cl)c3c(Nc4ccc(F)cc4O[C@@H]4COC[C@@H]4O)ncnc3c2)CCC1` (single isomer, unassigned) [Example 1.34], the inhibition at 1 µM came to 97%.

Turning to `CO[C@H]1COC[C@H]1Oc1ncccc1Nc1ncnc2cc(N=S3(=O)CCCC3)cc(C)c12` (single isomer, unassigned) [Example 14.1], the inhibition at 1 µM was 97%.

Take `CO[C@@H]1COC[C@@H]1Oc1ncccc1Nc1ncnc2cc(N=S3(=O)CCCC3)cc(C)c12` (single isomer, unassigned) [Example 14.2]: the inhibition at 1 µM was determined as 86%.
